Assay results: ChEMBL document CHEMBL5550187, “The Development of a Highly Potent and Selective Human Toll-like Receptor 2 Agonist: Synthesis and Biological Evaluation of CaLGL-1 and Its Derivatives” (J Med Chem, 2024)
The source made the active and inactive calls. No cut-off for these calls is given here.

Tests used:
Format in all cases: cell-based
[1] = target: Toll-like receptor 2 (Mus musculus) (UniProt Q9QUN7); assay: Agonist activity at TLR2 in CSF-2/GM-CSF treated wild type C57BL/6 mouse BMDC cells assessed as increase in TNF-alpha level at 10 uM measured after 24 hrs by ELISA
[2] = target: Toll-like receptor 2 (Mus musculus) (UniProt Q9QUN7); assay: Agonist activity at TLR2 in CSF-2/GM-CSF treated wild type C57BL/6 mouse BMDC cells assessed as increase in TNF-alpha mRNA expression at 10 uM measured after 24 hrs by qRT-PCR analysis
[3] = target: T1, Toll-like receptor 2 (Homo sapiens, UniProt O60603); assay: Agonist activity at TLR2 in PMA-differentiated human THP-1 cells assessed as increase in IL-1beta mRNA expression by qRT-PCR analysis
[4] = target: T1, Toll-like receptor 2; assay: Agonist activity at TLR2 in PMA-differentiated human THP-1 cells assessed as increase in TNF-alpha mRNA expression by qRT-PCR analysis
[5] = target: T1, Toll-like receptor 2; assay: Agonist activity at TLR2 in PMA-differentiated human THP-1 cells assessed as increase in IL-6 mRNA expression by qRT-PCR analysis
[6] = target: T1, Toll-like receptor 2; assay: Agonist activity at TLR2 in PMA-differentiated human THP-1 cells assessed as increase in TNF-alpha level by ELISA
[7] = target: Toll-like receptor 1/2 (Homo sapiens) (UniProt O60603+Q15399); assay: Agonist activity at human TLR1/TLR2 heterodimer transfected in HEK293T cells cotransfected with NF-kappaB promoter assessed as fold increase in NF-kappaB activation at 1 to 50 uM measured after 24 hrs by Dual-Glo luciferase assay relative to TLR2 alone; details: filed as agonist, dose 1-50 µM
[8] = target: TLR2/TLR6 (Homo sapiens) (UniProt O60603+Q9Y2C9); assay: Agonist activity at human TLR2/TLR6 heterodimer transfected in HEK293T cells cotransfected with NF-kappaB promoter assessed as increase in NF-kappaB activation at 1 to 50 uM measured after 24 hrs by Dual-Glo luciferase assay; details: dose 1-50 µM
[9] = target: T1, Toll-like receptor 2; assay: Agonist activity at human TLR2 transfected in HEK293T cells cotransfected with NF-kappaB promoter assessed as increase in NF-kappaB activation measured after 24 hrs by Dual-Glo luciferase assay; details: filed as agonist
[10] = target: Toll-like receptor 2 (Mus musculus, UniProt Q9QUN7); assay: Agonist activity at TLR2 in RmGM-CSF-induced wild type Black6 mouse BMDC cells lacking TLR4 assessed as increase in TNFalpha response incubated overnight by ELISA
Sequence of Toll-like receptor 2 (Mus musculus, UniProt Q9QUN7) (Q9QUN7 whole entry): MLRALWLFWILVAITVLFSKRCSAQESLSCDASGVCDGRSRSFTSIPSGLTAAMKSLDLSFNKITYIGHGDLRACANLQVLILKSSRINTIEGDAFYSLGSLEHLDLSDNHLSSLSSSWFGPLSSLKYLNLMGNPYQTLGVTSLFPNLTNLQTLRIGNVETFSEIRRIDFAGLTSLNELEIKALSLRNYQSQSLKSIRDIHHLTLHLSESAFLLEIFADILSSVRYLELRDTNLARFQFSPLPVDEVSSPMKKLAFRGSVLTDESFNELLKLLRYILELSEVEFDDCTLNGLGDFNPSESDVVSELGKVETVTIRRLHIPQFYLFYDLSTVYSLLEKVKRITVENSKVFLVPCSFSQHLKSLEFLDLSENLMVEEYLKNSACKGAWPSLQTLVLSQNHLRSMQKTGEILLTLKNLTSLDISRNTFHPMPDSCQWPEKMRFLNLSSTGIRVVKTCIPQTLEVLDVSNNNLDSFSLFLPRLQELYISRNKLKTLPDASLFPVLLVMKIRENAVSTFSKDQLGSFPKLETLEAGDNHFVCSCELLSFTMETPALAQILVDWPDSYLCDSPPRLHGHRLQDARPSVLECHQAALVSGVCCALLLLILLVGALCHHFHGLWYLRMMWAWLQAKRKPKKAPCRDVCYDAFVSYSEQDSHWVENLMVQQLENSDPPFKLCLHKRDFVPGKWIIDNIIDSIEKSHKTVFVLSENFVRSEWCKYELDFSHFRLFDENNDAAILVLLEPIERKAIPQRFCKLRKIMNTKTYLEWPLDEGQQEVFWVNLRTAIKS

T1 sequence (O60603 whole entry): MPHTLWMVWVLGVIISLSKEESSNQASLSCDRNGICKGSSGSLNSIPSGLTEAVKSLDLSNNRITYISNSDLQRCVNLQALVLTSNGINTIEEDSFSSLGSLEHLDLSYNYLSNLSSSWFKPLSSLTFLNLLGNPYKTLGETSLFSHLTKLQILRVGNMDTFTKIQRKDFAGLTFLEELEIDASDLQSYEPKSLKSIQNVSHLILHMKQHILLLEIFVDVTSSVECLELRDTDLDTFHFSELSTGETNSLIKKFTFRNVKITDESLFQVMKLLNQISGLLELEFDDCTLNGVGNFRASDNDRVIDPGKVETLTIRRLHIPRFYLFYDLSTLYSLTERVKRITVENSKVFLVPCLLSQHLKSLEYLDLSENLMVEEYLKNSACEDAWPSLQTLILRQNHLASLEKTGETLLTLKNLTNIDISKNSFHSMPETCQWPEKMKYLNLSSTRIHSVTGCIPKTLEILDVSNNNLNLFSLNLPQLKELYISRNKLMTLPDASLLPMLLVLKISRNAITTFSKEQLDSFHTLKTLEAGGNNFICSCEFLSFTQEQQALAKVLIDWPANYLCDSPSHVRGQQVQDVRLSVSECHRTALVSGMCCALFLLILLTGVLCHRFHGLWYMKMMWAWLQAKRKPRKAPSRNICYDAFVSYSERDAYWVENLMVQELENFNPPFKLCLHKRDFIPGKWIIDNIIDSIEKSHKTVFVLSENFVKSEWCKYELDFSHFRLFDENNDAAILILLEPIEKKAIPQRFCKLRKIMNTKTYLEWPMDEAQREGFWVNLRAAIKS
Sequence of Toll-like receptor 2 (Mus musculus) (Q9QUN7 whole entry): as the sequence (Q9QUN7 whole entry) above

SMILES | Activity [1] | Activity [2] | Activity ([1]; filed as agonist) | Activity ([2]; filed as agonist) | also measured
CCCCCCCCCCCCCCCCCCC[C@H]1OC[C@H]([C@@H]2O[C@@H](OC[C@H](O)COC(=O)CCCCCCCCCCC)[C@H](O)[C@H]2O)O1 | inactive | inactive |  |  | 
CCCCCCCCCCCC(=O)OC[C@@H](O)CO[C@@H]1O[C@@H]([C@H]2CO[C@H](CCCCCCCCCCC)O2)[C@H](O)[C@H]1O |  |  | Active | Active | 
CCCCCCCCCCCC(=O)OC[C@@H](O)CO[C@@H]1O[C@@H]([C@H]2CO[C@@H](CCCCCCCCC)O2)[C@H](O)[C@H]1O |  |  | Active | Active | 
CCCCCCCCCCCC(=O)OC[C@@H](O)CO[C@@H]1O[C@@H]([C@H]2CO[C@@H](CCCCCCCCCCC)O2)[C@H](O)[C@H]1O |  |  | Active | Active | Activity ([3]; filed as agonist): Active; Activity ([4]; filed as agonist): Active; Activity ([5]; filed as agonist): Active
CCCCCCCCCCCC[C@@H]1OC[C@H]([C@@H]2O[C@@H](OC[C@H](O)COC(=O)CCCCCCCCCCC)[C@H](O)[C@H]2O)O1 |  |  |  |  | EC50 [6]: 0.116 nM; fold change (FC) [7]: 15; Activity [8]: inactive; Activity [9]: Active
CCCCCCCCCCCC(=O)OC[C@@H](O)CO[C@@H]1O[C@@H]([C@H]2CO[C@H](CCCCCCCCC)O2)[C@H](O)[C@H]1O |  |  | Active | Active | 
CCCCCCCCCCCCC[C@@H]1OC[C@H]([C@@H]2O[C@@H](OC[C@H](O)COC(=O)CCCCCCCCCCC)[C@H](O)[C@H]2O)O1 |  |  |  |  | Activity [3]: inactive; Activity [4]: inactive; EC50 [10]: 3200 nM; Activity [5]: inactive
CCCCCCCCCCCCCCCCCCC[C@@H]1OC[C@H]([C@@H]2O[C@@H](OC[C@H](O)COC(=O)CCCCCCCCCCC)[C@H](O)[C@H]2O)O1 | inactive | inactive |  |  | 
CCCCCCCCCCCCCCCCC[C@H]1OC[C@H]([C@@H]2O[C@@H](OC[C@H](O)COC(=O)CCCCCCCCCCC)[C@H](O)[C@H]2O)O1 | inactive | inactive |  |  | 
CCCCCCCCCCCCCCCCC[C@@H]1OC[C@H]([C@@H]2O[C@@H](OC[C@H](O)COC(=O)CCCCCCCCCCC)[C@H](O)[C@H]2O)O1 | inactive | inactive |  |  | 
